In series [1] the test system is cultured rat forebrain neurons. Put plainly: Measurement of intracellular cGMP in neuronal cultures (enzyme-linked immunoassay). Type of series: cell-based. The method, then: (§1) Medium was not subsequently changed.
Intracellular cGMP was assayed by enzyme-linked immunoassay (Amersham). Cultures were washed three times, and then medium was replaced by EBSS with or without PQQ or SOD. The non-specific phosphodiesterase inhibitor, 3-isobutyl-1-methylxanthine (IBMX) at 100 μM was present in all conditions. DEA/NO, SIN-1 and peroxynitrite were added for 5 min, and then the medium was replaced with 200 μl of releasing reagent provided in the kit. The plates were agitated for 20 min at room temperature, and 20 μl of acetylation reagent was added. After 5 min, 50 μl samples were taken for assay.

The next series has as its system BSA. Kind of series: Western blot of BSA tyrosine nitration, cell-free (anti-nitrotyrosine antibody). The class given is biochemical, bovine. Particulars: SIN-1 1 mM alone. The method, then: BSA (0.5 mg/ml) in EBSS with or without PQQ was exposed to SIN-1 or peroxynitrite for 1 hr, and then 4× sample buffer (40% glycerol, 20% β-mercaptoethanol, 0.004% bromophenol blue, 6.4% SDS, 25% 1M Tris-HCl, pH 6.8) was added. After the samples were heated for 5 min, 2 μg protein per lane was subjected to SDS-PAGE analysis, followed by transfer to PVDF membrane (NEN Life Science, Boston, Mass.) and reacted with a mouse anti-nitrotyrosine monoclonal antibody (Upstate Biotechnology). Proteins were visualized with horseradish peroxidase-conjugated sheep anti-mouse immunoglobulin G (IgG) followed by detection with enhanced chemiluminescence.

Series [2] concerns cultured rat forebrain neurons. Kind of series: Assay of intracellular ATP in neuronal cultures (firefly luciferase). Type of series: cell-based. As to the method: as §1
Experiments were carried out exclusively in EBSS. […] PQQ was directly dissolved in EBSS.
The Bioluminescent Somatic Cell Assay kit from Sigma (catalog No. FL-ASC) was used for assay of ATP as previously described (Rosenberg et al., 2000). At selected time points after addition of drug or vehicle, medium was removed, and then replaced with 200 μl of cell lysis agent. After brief agitation, the medium was transferred to microcentrifuge tubes that contained 200 μl of water. The tubes were placed on wet ice until assay. ATP assay mix was used at 25-fold dilution, and 100 μl of the extract was assayed.

For the next series, the system named is Oligodendrocytes. Put plainly: In vitro white matter injury assay: SIN-1 toxicity in oligodendrocytes. Particulars: 2 hr exposure in EBSS; examined at 24 hr. Type of series: cell-based. As to the method:
Oligodendrocytes were exposed to various concentrations of SIN-1 (0, 0.25, 0.5, 1 and 2 mM) in EBSS for 2 hr with or without PQQ (100 μM), then washed with HBSS containing 0.1% BSA for 2 times. Oligodendrocytes were then returned to the culture medium. The neurotoxicity was examined at 24 hr.
To illustrate the neuroprotective benefits of the invention, PQQ was used to show oligodendrocytes protection from cell toxicity in an in vitro white matter injury assay. Oligodendrocytes were exposed to various concentrations of SIN-1 (0, 0.25, 0.5, 1 and 2 mM) in EBSS for 2 hr with or without PQQ (100 μM), then washed with HBSS containing 0.1% BSA for 2 times. Oligodendrocytes were then returned to the culture medium. The neurotoxicity was examined at 24 hr.

The test system of another series is G93A-SOD transgenic mice. Particulars: cited from earlier work.
The subject of series [3] is cultured rat forebrain neurons. Kind of series: Survival assay of neuronal cultures (Alamar Blue reduction, 24 hr). The following applies: for Effect on neurotoxicity induced by NMDA plus DETA/NO: PBN at 10 mM, TEMPO at 1 mM applied 1 hr before; for Synergism with NMDA in producing neurotoxicity: DEA/NO 100 μM, DPT/NO 300 μM; for Cell (neuronal) survival: ONOO− 100 μM alone, without PQQ. The method, then:
Neuronal cultures were prepared from embryonic day 16 Sprague Dawley rat fetuses using methods similar to those previously described (Dichter, 1978) but modified to produce cultures that contained <1% astrocytes (Rosenberg and Aizenman, 1989; Rosenberg, 1991; Rosenberg et al., 1992; Wang et al., 1998). Cultures were initially plated on poly-L-lysine-coated 24-well plastic plates (Costar, Cambridge, Mass.) using an 80:10:10 (v/v) mixture ofDMEM (Life Technologies 11960-010), Ham's F-12 (Sigma, N-4888), heat-inactivated iron-supplemented calf serum (Hyclone A2151), containing 2 mM glutamine, 25 mM HEPES, 24 U/ml penicillin, and 24 μg/ml streptomycin and maintained in a 5% CO2 (balance air) incubator at 36° C. Cell proliferation was inhibited by exposure to 5 μM cytosine arabinoside at 24 hr in vitro for 72 hr. On the fourth day of culture, the medium was completely removed and replaced with 90% MEM, 10% Nuserum IV (Collaborative Research), 2 mM glutamine, 5 mM HEPES, containing 50 units/ml superoxide dismutase (Boehringer Mannheim, Indianapolis, Ind.), 20 units/ml catalase (Sigma CV-40), total glucose 11 mM, and total sodium bicarbonate 9.3 mM, plus 2% B27 supplement (Life Technologies 17504-036). Medium was not subsequently changed. To prevent evaporation of water, culture dishes were kept in wet dishes containing filter paper that was always kept wet.
In all experiments, 24-well plates were first washed three times in Hank's balanced salt solution (HBSS) containing 0.1% bovine serum albumin (BSA), and then they were placed in Earle's balanced salt solution (EBSS, which is composed of 116 mM NaCl, 5.4 mM KCl, 1.8 mM CaCl2, 0.8 mM MgSO4, 26 mM NaHCO3, 1 mM NaH2PO4 and 5.5 mM D-glucose). Experiments were carried out exclusively in EBSS. […] PQQ was directly dissolved in EBSS.
Survival of cells was determined after 24 hr exposure to the test compounds by assessing the ability of cultures to reduce Alamar Blue (Trek Diagnostic Systems, Inc., Westlake, Ohio) as an index of viability (McGahon et al., 1995). Details of this procedure have been provided elsewhere (Back et al., 1998, 1999). In brief, the test medium was removed after 24 hr, and then replaced with EBSS plus a 1:100 dilution of Alamar Blue. After 2 hr exposure, the medium was diluted 50-fold with water, and the fluorescence intensity was determined in a Hitachi fluorescence spectrophotometer using an excitation wavelength of 530 nm and an emission wavelength of 590 nm. The photomultiplier voltage was set at 700 V. In some experiments, the cell viability determined by Alamar Blue was compared to that determined by the assay of lactate dehydrogenase (LDH) release (Koh and Choi, 1987).

Setting [4] is: five minutes, agent alone: SIN-1 100 μM, ONOO− 100 μM or DEA/NO 10 μM, IBMX 100 μM.
The mark [5] stands for this setting: nitric oxide donor 1 mM alone (FIG. 6B).
The mark [6] stands for this setting: nitric oxide donor 1 mM without MK-801 (FIG. 5A).
Where [7] appears, read: one hour after nitric oxide donor 1 mM alone.

Values joined by “and” are separate entries in the source; they are usually repeats but may differ in a detail not shown here. Equal entries are not always repeated. “Also recorded” adds a separate entry of the source.

As to `N=c1c[n+](N2CCOCC2)[n-]o1` [SIN-1, 3-morpholinosydnonimine], the “Intracellular cGMP content” value in series [1] (setting [4]) is 192±10.7 % of control and 207.6±11.5 % of control and 220.5±39.4 % of control. The “Nitration of BSA” value in the series with BSA is reported as “strong nitration”. Besides, the “Exposure time to maximal ATP depletion” value in series [2] (SIN-1 1 mM) is 1 h. The “Intracellular ATP” value in series [2] (of control values, 1 hr exposure to SIN-1 1 mM alone) was 43±15.6% and 43.3±18.7%. The compound further showed an EC50 in the series on Oligodendrocytes of 345 ± 91 µM.

With `COc1cccc(C=NCCN=Cc2cccc(OC)c2[O-])c1[O-].[Cl-].[Mn+3]` [EUK-134], in the series on G93A-SOD transgenic mice, the “Effect on protein tyrosine nitration” value was “reduced protein tyrosine nitration” and the “Effect on survival of transgenic animals” value is on record as “prolonged survival”.

In the case of `CN[C@H](CC(=O)O)C(=O)O` [NMDA], the “Toxicity to neurons, applied alone” value in series [3] (24 h exposure, NMDA 20 μM or DETA/NO 300 μM) was “does not produce toxicity”.

With `CC(C)(C)[N+]([O-])=Cc1ccccc1` [PBN, alpha-phenyl-N-tert butyl nitrone], the “Effect on neurotoxicity induced by NMDA plus DETA/NO” value in series [3] (24 hr exposure) is “not demonstrably neuroprotective; also recorded: no demonstrable effect”; in series [3] (four hour exposure) it was “complete neuroprotection; also recorded: block”.

For the compound `CCN(CC)/[N+]([O-])=N/O.CCNCC` [DEA/NO, diethylamine NONOate], the “Neurotoxicity to neurons in culture” value in series [3] (1 mM, in three out of six experiments) was “did not cause any toxicity”. In addition, the “Synergism with NMDA in producing neurotoxicity” value in series [3] is listed as “synergism”. Further, the Neuronal survival is recorded as 48.7±14.6 % of control in series [3] (setting [5]) and 18.2±5.3% in series [3] (setting [6]). Also, in series [1] (setting [4]), the “Intracellular cGMP content” value is 250±15.5 % of control and 215±32.2 % of control and 318.5±31 % of control. Also, the “Intracellular ATP” value in series [2] (setting [7]) is 51.6±5.8 % of control and 50.8±20.9 % of control.

With `NCCN(CCN)/[N+]([O-])=N/O` [DETA/NO, diethylaminetriamine NONOate], the “Synergistic effect with kainate in producing neurotoxicity” value in series [3] (DETA/NO 300 μM with kainate 20 μM) is recorded as “synergistic effect”. For the same compound, the values for the Neuronal survival in series [3] (setting [5]) and in series [3] (setting [6]) were 25.2±10.6 % of control and 27.9±8.0%, respectively.

`CC1(C)CCCC(C)(C)N1[O]` [TEMPO, 2,2,6,6-tetramethyl-1-piperidinyl-1-oxyl]: the “Effect on neurotoxicity induced by NMDA plus DETA/NO” value in series [3] (24 hr exposure) was “not demonstrably neuroprotective; also recorded: no demonstrable effect”; in series [3] (four hour exposure) it was “complete neuroprotection; also recorded: block”.

On to SOD: bovine superoxide dismutase, for which, in series [3] (SOD 100 U/ml co-applied with SIN-1 500 μM, no catalase), the “Effect on SIN-1 toxicity to neurons” value is reported as “potentiated”. In addition, the “Effect on SIN-1 toxicity” value in series [3] (SOD 100 U/ml together with catalase (CAT) 100 U/ml, SIN-1 1 mM, 24 hr) is “completely blocked; also recorded: fully prevented”. In series [3] (co-application of SOD 100 U/ml and SIN-1 500 μM), the Neuronal survival was 16.8±6.3 % of control and 11.6±1.2 % of control. Further, the “Intracellular cGMP content” value in series [1] (DEA/NO 10 μM in the presence of SOD 100 U/ml) is reported as 310.3±33.4 % of control; in series [1] (ONOO− 100 μM in the presence of SOD 100 U/ml), 131±6 % of control; in series [1] (SIN-1 100 μM in the presence of SOD 100 U/ml) it was 327.7±39.5 % of control. The “Effect on cGMP accumulation induced by SIN-1” value in series [1] (SOD 100 U/ml, SIN-1 100 μM) was “effect similar to that of PQQ; also recorded: enhanced”.

For the compound `NCCCN(CCCN)/[N+]([O-])=N/O` [DPT/NO, dipropylenetriamine NONOate], the “Synergism with NMDA in producing neurotoxicity” value in series [3] is on record as “synergism”. Besides, the values for the Neuronal survival in series [3] (setting [5]) and in series [3] (setting [6]) were 1.9±0.8 % of control and 6.5±5.3%, respectively. Further, the “Intracellular ATP” value in series [2] (setting [7]) was 62.6±4.5 % of control and 64.9±13.7 % of control.

As to `O=C(O)c1ccc(C2=C3C=CC(=N3)C(c3ccc(C(=O)O)cc3)=c3ccc([nH]3)=C(c3ccc(C(=O)O)cc3)c3ccc([n-]3)C(c3ccc(C(=O)O)cc3)c3ccc2[n-]3)cc1.[Cl-].[Mn+3]` (centres unmarked) [MnTBAP, Mn (III) tetrakis (4-benzoic acid) porphyrin chloride], the “Effect on SIN-1 toxicity” value in series [3] (MnTBAP 100 μM, SIN-1 1 mM) is recorded as “completely protected”. Further, the “Effect on neurotoxicity induced by SIN-1” value in series [3] (MnTBAP (TBAP), SIN-1 1 mM) was “completely blocks”. Further, the “Effect on ONOO− (peroxynitrite) toxicity” value in series [3] (MnTBAP, ONOO− 100 μM) is “blocked; also recorded: fully protected”.

With `[Cl-].[Mn+3].[O-]c1ccccc1C=NCCN=Cc1ccccc1[O-]` [EUK-8], in the series on G93A-SOD transgenic mice, the “Effect on protein tyrosine nitration” value is “reduced protein tyrosine nitration” and the “Effect on survival of transgenic animals” value is “prolonged survival”.

With `O=NOO` [ONOO^−, peroxynitrite], the “Cell (neuronal) survival” value is listed as 52.4±0.4% in series [3] and 49±7.3% in series [3] (listed as peroxynitrite). Further, the “Intracellular cGMP content” value in series [1] (setting [4]) is 111±11.2 % of control and 97±14.4 % of control; in series [1] (five minutes, agent alone: SIN-1 100 μM, ONOO− 100 μM or DEA/NO 10 μM, IBMX 100 μM, listed as peroxynitrite) it was 95.6±4.3 % of control. For the same compound, the “Intracellular ATP” value in series [2] (of control values, 1 hr ONOO− 100 μM alone) came out at 37±9.9%; in series [2] (of control values, 1 hr ONOO− 100 μM alone, listed as peroxynitrite), 40.5±11%. In addition, the “ATP level after 5 min exposure” value in series [2] (peroxynitrite 100 μM, 5 min) was 50 % of its original levels.

The record behind these values is patent publication US20030229114A1, “Pyrroloquinoline quinone drugs as a neuroprotectant and methods of use thereof” (priority 2002, published 2003).
